Values after ≈ are worked out from the molar mass of the structure shown. Read-outs that look alike come from different tables or passages of the source. Where no end group is shown, it is not given here.
B1: WL38 peptide (MVKDLSNPSRYL) (peptide)
peptide: MVKDLSNPSRYL
modifications: also: 125I-iodinated, residue not given here
notes: Synthetic HER-2-targeting peptide; also called TT38; 125I-WL38

Experiments:
[1] = Body distribution of DXR in mice bearing HuT 78 xenografts; format: in vivo, NIH III mice; conditions: 2.5 mg/kg, 72 hours
Protocol: NIH III mice bearing HuT 78 xenografts were administered with conjugated DXR and free DXR at a dose of 2.5 mg/kg of DXR equivalent. After 72 hours, the mice were sacrificed and tissue samples were prepared for analysis for free or total DXR.
The total amount of DXR was determined after hydrolysis of free and conjugated DXR to generate aglycon. The amount of bound conjugate was computed as the difference between total and free DXR.

[2] = system: human T lymphoma cell line HUT 78; test: In vitro cytotoxicity assay (MTS), HUT 78; format: cell-based; conditions: HuT78, 48 h, DXR equivalent concentration, about two days incubation, read-out: IC50 against HUT 78
Protocol: (§1) On the day prior to starting the assay, cells were fed with fresh tissue culture medium (RPMI 1640+10% FCS for most cell lines, use other media as appropriate). A conjugate test solution was prepared in culture medium, with a concentration that is twice the final desired test concentration. Typically with doxorubicin (DXR) conjugates, a DXR equivalent concentration range of 100 μM down to 0.1 μM, using 1:2 serial dilutions is used. All concentrations are calculated and reported in terms of final DXR concentration (as opposed to total conjugate concentration).
(§2) The cell suspension is prepared at a concentration of 1-2×10^6 cells/Ml in culture medium. To each well of a 96-well, flat-bottom, microtiter plate (Falcon Microtest III assay plates, No. 3872) was added 50 μl of the cell suspension prepared above. A 50 μl of conjugate solution was added to each well of the assay plate. […]
(§3) The following blank and control wells were prepared: Plate Blank=100 μl of tissue culture medium only; cell control=50 μl cell suspension+50 μl tissue culture medium; and conjugate Blanks=50 μl 2× conjugate solution +50 μl tissue culture medium. […] Using a 96-well microplate reader, the absorbance of each well was measured at 490 nm. For each conjugate test concentration, the % cytotoxicity was calculated using the following formula: % Cytotoxicity=(1−[Abs. Conjugate Test Group/Abs. Cell Control])×100.

[3] = system: MCF7-WT (HER-2 negative) breast carcinoma cell line; test: EDR assay, MCF7-WT; format: cell-based; conditions: Homo sapiens, 120 h, 5 days of incubation
Protocol: (§4) The PC3 prostate carcinoma, as well as the MCF7-WT and SK-BR3 breast carcinoma cell lines were obtained from ATCC and maintained in RPMI 1640 (GibcoBRL, Grand Island, N.Y.) supplemented with 10% fetal bovine serum (FBS, Omega Scientific, Tarzana, Calif.), 100 IU/ml penicillin, 100 μg/ml streptomycin, and 2 mM L-glutamine (Irvine Scientific, Irvine, Calif.) (complete growth medium). Cells were harvested with 0.25% trypsin (GibcoBRL) after washing twice with phosphate-buffered saline (PBS, Irvine Scientific), then washed with complete medium, counted and checked for viability using trypan blue. Different passages of the cell line were tested for their resistance to WL68-DXR vs. native doxorubicin to evaluate the stability of WL68-DXR under storage at −70° C. […]
(§5) 103 mg of 20 KD mpPEG-8PA-WL68-DXR (further referred to as WL-68-DXR) was dissolved in 10.3 ml of sterile PBS, aliquoted in plastic 1 ml tubes and kept at −70° C. until analysis. […] Positive controls were determined using at least 2 wells treated with an extremely high dose of cisplatin. […]
(§6) Cells were incubated with drugs under standard culture conditions for five days. […] The radioactivity trapped on the filters was counted with a Beckman scintillation counter. The fraction of surviving cells was determined by comparing ^3H-TdR incorporation in treated (experimental points) and untreated (negative control) wells. […]

[4] = system: human ovarian cancer cell line A-2780R; test: In vitro cytotoxicity assay (MTS), A-2780R; format: cell-based; conditions: DXR equivalent concentration, read-out: IC50 against A-2780R
Protocol: as §1, §2, §3

[5] = system: PC3 human prostate carcinoma cell line; test: EDR assay, PC3 (storage stability of stock solutions); format: cell-based
Protocol: as §4, §5, §6

[6] = system: human ovarian cancer cell line A-2780R tumor; test: In vivo efficacy, murine tumor model of subcutaneously implanted A-2780R; conditions: 30 mg/kg
Protocol: Efficacy of mpPEG-WL00-DXR conjugate was also compared with DOXIL® in a murine tumor model generated by subcutaneously implanting human ovarian cancer cell line A-2780R. […] At day 21, the tumor growth inhibition in the animal treated with TM 1192-029-1 animal was 92%. The unconjugated DXR at 30 mg/kg gave 70% tumor growth inhibition.

[7] = system: HER-2-positive fresh breast carcinoma specimens; test: EDR assay, HER-2-positive fresh breast carcinoma specimens; format: cell-based; conditions: Homo sapiens, read-out: IC50, HER-2-positive group
Protocol: (§7) Tumor cells were suspended in 0.12% soft agar in complete medium, and plated at different cell concentrations (typically, 3,000 cells for the cell lines and 15,000 cells per well for fresh tumor specimens) onto a 0.4% agarose underlayer in 24-well plates. Plating cells on agarose underlayers supports the proliferation only of the transformed cells, ensuring that the growth signal stems from the malignant component of the tumor.
as §5, with “analysis. The doxorubicin equivalent for the WL68-DXR stock solution was 4.06 μg/ml.” for “analysis.”
as §6
(§8) A monoclonal antibody against HER-2 (clone 4E200) was purchased from Neomarkers, Inc. (Fremont, Calif.) and used at 1 μg/ml. Optimal working concentrations and incubation time for the HER-2 antibody have been determined in preliminary experiments. […]

[8] = system: SK-BR3 (HER-2 positive) breast carcinoma cell line; test: EDR assay, SK-BR3; format: cell-based; conditions: Homo sapiens, SK-BR-3, 120 h; 5 days of incubation
Protocol: as §4, §5, §6

[9] = system: HER-2-negative fresh breast carcinoma specimens; test: EDR assay, HER-2-negative fresh breast carcinoma specimens; format: cell-based; conditions: Homo sapiens, nine specimens
Protocol: as §7
as §5, with “analysis. The doxorubicin equivalent for the WL68-DXR stock solution was 4.06 μg/ml.” for “analysis.”
as §6, §8

HUT 78 tumor = test: In vivo efficacy, murine model of human cutaneous T-cell lymphoma (HUT 78)
Protocol: In vitro cytotoxicity against human T-cell lymphoma cell line HUT 78 and human ovarian cancer cell lines A-2780R, as well as in vitro screening on several fresh human tumor specimens from different types of cancer were evaluated. The in vivo efficacy was determined using murine models for human cutaneous T-cell lymphoma. Free doxorubicin and liposomal doxorubicin (DOXIL®) were used as controls for the experiments. The “WL00” moiety comprises the GFLG peptide (SEQ ID NO 1).
The efficacy of mpPEG-WL00-DXR in vivo was also evaluated. A single dose treatment of 30 mg/kg was used for the conjugate and DOXIL®, whereas 15 mg/kg (equivalent doxorubicin dose) was used for unconjugated DXR. […] The percent tumor growth inhibition at day 15 for CA 1043-136, TM 1192-029-1 and TM 1192-038 was 84, 79 and 84, respectively.
In addition, a DXR conjugate with 8.7% DXR loading (TM 1192-107-1) was evaluated in both human T-lymphoma cell line HUT 78 and ovarian cancer cell line A-2780R animal tumor model. […] It is also worth noting that the conjugate CA 1043-36 was very active after two years of storage as a lyophilized powder at 4° C.

[10] = molecular target: T1, HER-2 receptor (human epidermal growth factor receptor-2) (human, UniProt P04626 23-1255); test: 125I-labelled peptide binding to SK-Br3 cells in suspension, cell-bound counts (Example 17)
T1 construct: whole, on cells; Presented on the HER-2-positive SK-Br3 cell line; Raji cells served as the negative control; also called c-erbB-2; neu
Protocol: WL38 was iodinated by using lodo-Gen method described in herein. Unbound ¹²⁵I was removed by ion-exchange chromatography with MP-1 resin, (BIO-RAD AG). SK-Br3 cells were removed from the flask bottom by the cell scraper, suspended, and centrifuged at 500×g for 1 min. The cell pellet was suspended in the binding buffer (50 mM PBS, 30 mM NaN₃, 0.5% BSA, pH 7.4). The cell suspension (100 μl) containing 500,000 cells were placed into a glass tube and incubated with ¹²⁵I-WL38 peptides at various concentrations. Unbound peptide was removed by centrifugation. Cells were dissolved in 1M NaOH, and applied for ¹²⁵I counting. Binding of the WL38 peptide to Raji cell which were used as a negative control was performed in a similar manner. Non-specific binding of the WL38 to A2870/R cells was determined on the background of unlabeled WL3 8 at concentration 100 μM.

binding result [10] | Molecule | DXR per gram in tumor, heart and muscle tissues [1] | IC50 [2] [µM] | IC50 [3] [µg/mL] | IC50 [4] [µM] | IC50 ([5]; 336 h, after two weeks of storage at −70° C., read-out: IC50, PC3, after freezing the stock solution) [µg/mL] | IC50 ([5]; read-out: IC50, PC3, before freezing the stock solution) [µg/mL] | tumor growth inhibition [6] [%] | IC50 [7] [µg/mL] | IC50 [8] [µg/mL] | IC50 ([9]; average, read-out: IC50 (average), HER-2-negative breast carcinomas) [µg/mL] | IC50 ([9]; read-out: IC50 (span over specimens), HER-2-negative breast carcinomas) [µg/mL] | deaths (HUT 78 tumor; 15 mg/kg dose) | survival of animals (HUT 78 tumor; HUT 78 tumor study, 30 mg/kg, study period 21 days) | mean tumor growth inhibition at day 15 (HUT 78 tumor; single dose 15 mg/kg (equivalent doxorubicin dose)) [%]
 | COc1cccc2c1C(=O)c1c(O)c3c(c(O)c1C2=O)C[C@@](O)(C(=O)CO)C[C@@H]3O[C@H]1C[C@H](N)[C@H](O)[C@H](C)O1 [unconjugated DXR, doxorubicin] | Approximately equal amounts | 2.1 | 0.013 ± 0.004 (≈ 0.0239 µM) | 14.2 | 0.022 (≈ 0.0405 µM) | 0.027 (≈ 0.0497 µM) | 70 | 0.019 ± 0.02 (≈ 0.035 µM) | 0.03 ± 0.02 (≈ 0.0552 µM) | 0.025 ± 0.025 (≈ 0.046 µM) | 0.004 to 0.083 (≈ 0.00736 to 0.153 µM) | one death out of four animals | five out of five animals died within seven days | 12
binds | B1 |  |  |  |  |  |  |  |  |  |  |  |  |  | 

From patent publication US20030124742A1, “Conjugates targeted to target receptors” (priority 2001, published 2003)
